Experiment [1] concerns the target T1, wild type MopR (Acinetobacter guillouiae, UniProt Q43965).
T1 sequence (Q43965 1-229): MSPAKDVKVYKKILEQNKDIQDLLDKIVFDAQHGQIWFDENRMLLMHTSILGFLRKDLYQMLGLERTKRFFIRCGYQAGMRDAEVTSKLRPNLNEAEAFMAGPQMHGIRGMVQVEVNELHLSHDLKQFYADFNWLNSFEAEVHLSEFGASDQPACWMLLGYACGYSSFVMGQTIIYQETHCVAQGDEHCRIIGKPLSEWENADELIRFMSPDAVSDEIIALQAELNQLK
As to conditions: wild type MopR sensor domain; previous ITC studies; cited from earlier work.

Experiment [2] has as its target MopR M100V_L119V (Acinetobacter guillouiae, UniProt Q43965, L119V/M100V). The experiment is described as follows: biochemical.
The subject of experiment [3] is MopR second barrier residues (F99, F132) mutated to leucine. As to conditions: F99, F132 mutated to nonaromatic leucine, ligand phenol.
The target of experiment [4] is MopR H106A. As to conditions: cited from earlier work.
Experiment [5] concerns the target MopR M100K_V116D (Acinetobacter guillouiae, UniProt Q43965, M100K/V116D). As to conditions: salt bridge mutant M100K_V116D, ligand phenol.
Experiment [6] concerns the target MopR M100Q_L119N (Acinetobacter guillouiae, UniProt Q43965, L119N/M100Q). The experiment is described as follows: biochemical.
For experiment [7], the system named is MopR M100K_L119D. As to conditions: salt bridge mutant M100K_L119D, ligand phenol.
The target in experiment [8] is MopR W134A. As to conditions: cited from earlier work.
Experiment [9] has as its target T1, wild type MopR. Briefly: biochemical.
Experiment [10] has as its target MopR M100Q_V116N (Acinetobacter guillouiae, UniProt Q43965, M100Q/V116N). Briefly: biochemical.

Each structure is given as a SMILES string. Entries after “also recorded” stand apart in the source; their conditions may differ.

Regarding `c1ccccc1` [benzene], the “ligand selection profile of MopR (binding, in words)” value in experiment [1] is on record as “significantly decreased affinity; also recorded: little or negligible binding”.
A word on the Kd: it is a measure of binding affinity in units of concentration. As to `Oc1ccccc1` [phenol], the dissociation constant Kd in [2] was 450 ± 60 nM; in experiment [4] it was 7.86 ± 0.01 µM; in experiment [6], 2700 ± 500 nM; in experiment [8], 2870 ± 10 nM; in experiment [9], 460 ± 60 nM; in [10], 4.35 ± 0.07 µM. In addition, in [3], the “binding affinity (ITC)” value was “significantly decrease the binding affinity”. Besides, the “binding (ITC)” value in experiment [5] and in [7] was “no detectable binding” in each case.

The values are drawn from publication PMC10598577 (JACS Au, 2023).
